Assay results reported in patent US20070128217A1 (priority 2003, published 2007).

Columns and labels:
[1] = tested on: control sera (pooled serum of ten healthy LUMC hospital workers; commercial negative donor pooled serum from the Dutch bloodbank); assay type: binding, human; parameters: Binding of Control serum LUMC to linear peptides / Binding of Control serum Blood-bank to linear peptides / Binding of Control serum LUMC to looped peptides / Binding of Control Serum Blood-Bank to Looped peptides / Binding of Control serum LUMC to linear peptides of the protein M of SARS-CoV Urbani / Binding of Control serum Blood-bank to linear peptides of the protein M of SARS-CoV Urbani / Binding of Control serum LUMC to looped peptides of the protein M of SARS-CoV Urbani / Binding of Control Serum Blood-Bank to Looped peptides of the protein M of SARS-CoV Urbani: unit not given here
[2] = tested on: rabbit serum obtained by immunizing a rabbit with the SARS-CoV strain Frankfurt 1; assay type: binding; parameters: Binding of a rabbit serum to linear peptides / Binding of a rabbit serum to looped peptides / Rabbit serum linear peptides / Rabbit serum looped peptides / Binding of a rabbit serum to linear peptides of protein N of SARS-CoV Urbani (Rabbit serum linear peptides) / Binding of a rabbit serum to looped/cyclic peptides of protein N of SARS-CoV Urbani (Rabbit serum looped peptides): unit not given here
[3] = tested on: antibodies in sera from SARS patients (sera 1a, 1b, 2, 6, 37, 62, London, SARS-yellow, SARS-green); assay type: binding, human; parameters: Binding of serum 6 to linear peptides of protein X1 of SARS-CoV Urbani / Binding of serum 37 to linear peptides of protein X1 of SARS-CoV Urbani / Binding of serum 6 to looped/cyclic peptide (PEPSCAN-ELISA) / Binding of serum 37 to looped/cyclic peptide (PEPSCAN-ELISA) / Binding of serum 37 to looped/cyclic peptides of protein X1 of SARS-CoV Urbani / Binding of serum 6 to linear peptides of protein X2 / Binding of serum 37 to linear peptides of protein X2 / Binding of serum 37 to looped/cyclic peptides of protein X2 of SARS-CoV Urbani / Binding of serum 6 to linear peptides of protein M of SARS-CoV Urbani / Binding of serum 37 to linear peptides of protein M of SARS-CoV Urbani / Binding of serum 6 to looped/cyclic peptides of protein M of SARS-CoV Urbani / Binding of serum 37 to looped/cyclic peptides of protein M of SARS-CoV Urbani / Binding of serum 6 to linear peptides of protein X3 of SARS-CoV Urbani / Binding of serum 37 to linear peptides of protein X3 of SARS-CoV Urbani / Binding of serum 37 to looped/cyclic peptides of protein X3 of SARS-CoV Urbani / Binding of serum 6 to linear peptides of protein X4 of SARS-CoV Urbani / Binding of serum 37 to linear peptides of protein X4 of SARS-CoV Urbani / Binding of serum 37 to looped/cyclic peptides of protein X4 of SARS-CoV Urbani / Binding of serum 6 to linear peptides of protein X5 of SARS-CoV Urbani / Binding of serum 37 to linear peptides of protein X5 of SARS-CoV Urbani / Binding of serum 37 to looped/cyclic peptides of protein X5 of SARS-CoV Urbani / Binding of serum 6 to linear peptides of protein N of SARS-CoV Urbani / Binding of serum 37 to linear peptides of protein N of SARS-CoV Urbani / Binding of serum 6 to linear peptide (PEPSCAN-ELISA) / Binding of serum 1a to looped/cyclic peptides of protein N of SARS-CoV Urbani / Binding of serum 1b to looped/cyclic peptides of protein N of SARS-CoV Urbani / Binding of serum 2 to looped/cyclic peptides of protein N of SARS-CoV Urbani / Binding of serum 6 to looped/cyclic peptides of protein N of SARS-CoV Urbani / Binding of serum 37 to looped/cyclic peptides of protein N of SARS-CoV Urbani / Binding of serum 62 to looped/cyclic peptides of protein N of SARS-CoV Urbani / Binding of serum London to looped/cyclic peptides of protein N of SARS-CoV Urbani / Binding of serum SARS-green to looped/cyclic peptides of protein N of SARS-CoV Urbani: unit not given here
[4] = tested on: recombinant human anti-SARS-CoV antibody 03-018; assay type: binding; parameters: Binding of antibody 03-018 to linear peptides of the N protein of SARS-CoV Urbani / Binding of antibody 03-018 to looped/cyclic peptides of the N protein of SARS-CoV Urbani: unit not given here

| Sequence | Binding of a rabbit serum to linear peptides of protein N of SARS-CoV Urbani (Rabbit serum linear peptides) [2] | Binding of a rabbit serum to looped/cyclic peptides of protein N of SARS-CoV Urbani (Rabbit serum looped peptides) [2] | Binding of serum 1a to linear peptides of protein N of SARS-CoV Urbani [3] | Binding of serum 1a to looped/cyclic peptides of protein N of SARS-CoV Urbani [3] | Binding of serum 1b to linear peptides of protein N of SARS-CoV Urbani [3] | Binding of serum 1b to looped/cyclic peptides of protein N of SARS-CoV Urbani [3] | Binding of serum 2 to linear peptides of protein N of SARS-CoV Urbani [3] | Binding of serum 2 to looped/cyclic peptides of protein N of SARS-CoV Urbani [3] | Binding of serum 6 to linear peptides of protein N of SARS-CoV Urbani [3] | Binding of serum 6 to looped/cyclic peptides of protein N of SARS-CoV Urbani [3] | Binding of serum 37 to linear peptides of protein N of SARS-CoV Urbani [3] | Binding of serum 37 to looped/cyclic peptides of protein N of SARS-CoV Urbani [3] | Binding of serum 62 to linear peptides of protein N of SARS-CoV Urbani [3] | Binding of serum 62 to looped/cyclic peptides of protein N of SARS-CoV Urbani [3] | Binding of serum London to linear peptides of protein N of SARS-CoV Urbani [3] | Binding of serum London to looped/cyclic peptides of protein N of SARS-CoV Urbani [3] | Binding of serum SARS-green to looped/cyclic peptides of protein N of SARS-CoV Urbani [3] | Binding of serum SARS-yellow to looped/cyclic peptides of protein N of SARS-CoV Urbani [3] | Binding of antibody 03-018 to linear peptides of the N protein of SARS-CoV Urbani [4] | Binding of antibody 03-018 to looped/cyclic peptides of the N protein of SARS-CoV Urbani [4] | further results |
| --- | --- | --- | --- | --- | --- | --- | --- | --- | --- | --- | --- | --- | --- | --- | --- | --- | --- | --- | --- | --- | --- |
| DYKHWPQIAQFAPSA | 0.1 | 0.5 | 0.3 | 0.4 | 0.2 | 0.3 | 0.2 | 0.4 | 0.2 | 0.2 | 0.9 | 0.6 | 0.9 | 0.6 | 0.7 | 0.5 | 0.2 | 0.7 | 0.1 | 0.2 | Control Serum Blood-Bank Looped peptides [1]: 0.6; Control serum Blood-bank linear peptides [1]: 0.9; Control serum LUMC linear peptides [1]: 0.8; Control serum LUMC looped peptides [1]: 0.7; Binding of serum SARS-green to linear peptides of protein N of SARS-CoV Urbani [3]: 0.4; Binding of serum SARS-yellow to linear peptides of protein N of SARS-CoV Urbani [3]: 0.8 |
| EASKKPRQKRTATKQ | 0.2 | 0.2 |  | 0.3 |  | 0.2 |  | 0.4 |  | 0.3 |  | 0.6 |  | 0.5 |  | 0.5 | 0.3 | 0.4 | 0.1 | 0.3 | Binding of Control Serum Blood-Bank to Looped peptides [1]: 0.8; Binding of Control serum Blood-bank to linear peptides [1]: 0.9; Binding of Control serum LUMC to linear peptides [1]: 0.8; Binding of Control serum LUMC to looped peptides [1]: 0.6; Binding of serum 1a to linear peptide (PEPSCAN-ELISA) [3]: 0.2; Binding of serum 1b to linear peptide (PEPSCAN-ELISA) [3]: 0.1; Binding of serum 2 to linear peptide (PEPSCAN-ELISA) [3]: 0.3; Binding of serum 6 to linear peptide (PEPSCAN-ELISA) [3]: 0.3; Binding of serum 37 to linear peptide (PEPSCAN-ELISA) [3]: 0.7; Binding of serum 62 to linear peptide (PEPSCAN-ELISA) [3]: 0.7; Binding of serum London to linear peptide (PEPSCAN-ELISA) [3]: 0.5; Binding of serum SARS-green to linear peptide (PEPSCAN-ELISA) [3]: 0.3; Binding of serum SARS-yellow to linear peptide (PEPSCAN-ELISA) [3]: 0.6 |
| EASLPYGANKEGIVW | 0.1 | 0.3 | 0.2 | 0.3 | 0.1 | 0.2 | 0.2 | 0.4 | 0.1 | 0.2 | 0.5 | 0.7 | 0.5 | 0.6 | 0.4 | 0.5 | 0.5 | 0.2 | 0.1 | 0.2 | Binding of Control Serum Blood-Bank to Looped peptides [1]: 0.7; Binding of Control serum Blood-bank to linear peptides [1]: 0.8; Binding of Control serum LUMC to linear peptides [1]: 0.6; Binding of Control serum LUMC to looped peptides [1]: 0.6; Binding of serum SARS-green to linear peptides of protein N of SARS-CoV Urbani [3]: 0.2; Binding of serum SARS-yellow to linear peptides of protein N of SARS-CoV Urbani [3]: 0.6 |
